System: six V600E BRAF melanoma cell lines
Experiment: Screening of recombinant RTK ligands for ability to confer resistance to BRAFi (PLX4720) or MEKi (PD184352) (Table 4)
Format: cell-based, human
Parameters: ability of recombinant RTK ligand to confer resistance / ability of recombinant RTK ligand to confer resistance (screening value): scale not given here
Experimental: HGF is the only one that can substantially confer drug resistance to the cell lines.
The complexity of the tumor microenvironment is much greater than an in vitro co-culture system. Therefore, the inventors explored whether the activation of other RTKs could result in a similar resistance as that observed with the activation of MET. To this end, six V600E BRAF melanoma cell lines were tested for their resistance to either BRAFi (PLX4720) or MEKi (PD184352) after the addition of 22 RTK ligands that have the potential of activating almost all known RTKs. […] The activation of a selected subset of these RTKs was confirmed by western blotting and by high throughput tyrosine kinase phosphorylation profiling.

## SCF
A2058, PD184352 - 1 uM, ligand 0.4 ng/ml
  ability of recombinant RTK ligand to confer resistance: 1.04
A2058, PD184352 - 1 uM, ligand 1.6 ng/ml
  ability of recombinant RTK ligand to confer resistance: 1.04
A2058, PD184352 - 1 uM, ligand 6.25 ng/ml
  ability of recombinant RTK ligand to confer resistance: 1.13
A2058, PD184352 - 1 uM, ligand 25 ng/ml
  ability of recombinant RTK ligand to confer resistance: 1.12
A2058, PD184352 - 1 uM, ligand 100 ng/ml
  ability of recombinant RTK ligand to confer resistance: 1.09
A2058, PLX4720 - 2 uM, ligand 0.4 ng/ml
  ability of recombinant RTK ligand to confer resistance: 1.04
A2058, PLX4720 - 2 uM, ligand 1.6 ng/ml
  ability of recombinant RTK ligand to confer resistance: 1.06
A2058, PLX4720 - 2 uM, ligand 6.25 ng/ml
  ability of recombinant RTK ligand to confer resistance: 1.07
A2058, PLX4720 - 2 uM, ligand 25 ng/ml
  ability of recombinant RTK ligand to confer resistance: 1.13
A2058, PLX4720 - 2 uM, ligand 100 ng/ml
  ability of recombinant RTK ligand to confer resistance: 1.08
C32, PD184352 - 1 uM, ligand 0.4 ng/ml
  ability of recombinant RTK ligand to confer resistance: 1.02
C32, PD184352 - 1 uM, ligand 1.6 ng/ml
  ability of recombinant RTK ligand to confer resistance: 1.05
C32, PD184352 - 1 uM, ligand 6.25 ng/ml
  ability of recombinant RTK ligand to confer resistance: 1.03
C32, PD184352 - 1 uM, ligand 25 ng/ml
  ability of recombinant RTK ligand to confer resistance: 1.04
C32, PD184352 - 1 uM, ligand 100 ng/ml
  ability of recombinant RTK ligand to confer resistance: 0.98
C32, PLX4720 - 2 uM, ligand 0.4 ng/ml
  ability of recombinant RTK ligand to confer resistance: 1.05
C32, PLX4720 - 2 uM, ligand 1.6 ng/ml
  ability of recombinant RTK ligand to confer resistance: 0.94
C32, PLX4720 - 2 uM, ligand 6.25 ng/ml
  ability of recombinant RTK ligand to confer resistance: 0.97
C32, PLX4720 - 2 uM, ligand 25 ng/ml
  ability of recombinant RTK ligand to confer resistance: 0.98
C32, PLX4720 - 2 uM, ligand 100 ng/ml
  ability of recombinant RTK ligand to confer resistance: 0.96
Colo 829, PD184352 - 1 uM, ligand 0.4 ng/ml
  ability of recombinant RTK ligand to confer resistance: 1.00
Colo 829, PD184352 - 1 uM, ligand 1.6 ng/ml
  ability of recombinant RTK ligand to confer resistance: 1.08
Colo 829, PD184352 - 1 uM, ligand 6.25 ng/ml
  ability of recombinant RTK ligand to confer resistance: 1.15
Colo 829, PD184352 - 1 uM, ligand 25 ng/ml
  ability of recombinant RTK ligand to confer resistance: 1.18
Colo 829, PD184352 - 1 uM, ligand 100 ng/ml
  ability of recombinant RTK ligand to confer resistance: 1.09
Colo 829, PLX4720 - 2 uM, ligand 0.4 ng/ml
  ability of recombinant RTK ligand to confer resistance: 0.96
Colo 829, PLX4720 - 2 uM, ligand 1.6 ng/ml
  ability of recombinant RTK ligand to confer resistance: 1.01
Colo 829, PLX4720 - 2 uM, ligand 6.25 ng/ml
  ability of recombinant RTK ligand to confer resistance: 1.06
Colo 829, PLX4720 - 2 uM, ligand 25 ng/ml
  ability of recombinant RTK ligand to confer resistance: 1.10
Colo 829, PLX4720 - 2 uM, ligand 100 ng/ml
  ability of recombinant RTK ligand to confer resistance: 1.04
G-361, PD184352 - 1 uM, ligand 0.4 ng/ml
  ability of recombinant RTK ligand to confer resistance: 1.06
G-361, PD184352 - 1 uM, ligand 1.6 ng/ml
  ability of recombinant RTK ligand to confer resistance: 0.99
G-361, PD184352 - 1 uM, ligand 6.25 ng/ml
  ability of recombinant RTK ligand to confer resistance: 1.06
G-361, PD184352 - 1 uM, ligand 25 ng/ml
  ability of recombinant RTK ligand to confer resistance: 1.13
G-361, PD184352 - 1 uM, ligand 100 ng/ml
  ability of recombinant RTK ligand to confer resistance: 1.07
G-361, PLX4720 - 2 uM, ligand 0.4 ng/ml
  ability of recombinant RTK ligand to confer resistance: 1.07
G-361, PLX4720 - 2 uM, ligand 1.6 ng/ml
  ability of recombinant RTK ligand to confer resistance: 1.03
G-361, PLX4720 - 2 uM, ligand 6.25 ng/ml
  ability of recombinant RTK ligand to confer resistance: 1.04
G-361, PLX4720 - 2 uM, ligand 25 ng/ml
  ability of recombinant RTK ligand to confer resistance: 1.12
G-361, PLX4720 - 2 uM, ligand 100 ng/ml
  ability of recombinant RTK ligand to confer resistance: 1.07
SK-MEL-5, PD184352 - 1 uM, ligand 0.4 ng/ml
  ability of recombinant RTK ligand to confer resistance: 0.97
SK-MEL-5, PD184352 - 1 uM, ligand 1.6 ng/ml
  ability of recombinant RTK ligand to confer resistance: 0.34
SK-MEL-5, PD184352 - 1 uM, ligand 6.25 ng/ml
  ability of recombinant RTK ligand to confer resistance: 1.02
SK-MEL-5, PD184352 - 1 uM, ligand 25 ng/ml
  ability of recombinant RTK ligand to confer resistance: 1.10
SK-MEL-5, PD184352 - 1 uM, ligand 100 ng/ml
  ability of recombinant RTK ligand to confer resistance: 1.12
SK-MEL-5, PLX4720 - 2 uM, ligand 0.4 ng/ml
  ability of recombinant RTK ligand to confer resistance: 0.90
SK-MEL-5, PLX4720 - 2 uM, ligand 1.6 ng/ml
  ability of recombinant RTK ligand to confer resistance: 8.91
SK-MEL-5, PLX4720 - 2 uM, ligand 6.25 ng/ml
  ability of recombinant RTK ligand to confer resistance: 0.96
SK-MEL-5, PLX4720 - 2 uM, ligand 25 ng/ml
  ability of recombinant RTK ligand to confer resistance: 1.00
SK-MEL-5, PLX4720 - 2 uM, ligand 100 ng/ml
  ability of recombinant RTK ligand to confer resistance: 1.09
SK-MEL-28, PD184352 - 1 uM, ligand 0.4 ng/ml
  ability of recombinant RTK ligand to confer resistance: 1.03
SK-MEL-28, PD184352 - 1 uM, ligand 1.6 ng/ml
  ability of recombinant RTK ligand to confer resistance: 0.94
SK-MEL-28, PD184352 - 1 uM, ligand 6.25 ng/ml
  ability of recombinant RTK ligand to confer resistance: 1.01
SK-MEL-28, PD184352 - 1 uM, ligand 25 ng/ml
  ability of recombinant RTK ligand to confer resistance: 1.06
SK-MEL-28, PD184352 - 1 uM, ligand 100 ng/ml
  ability of recombinant RTK ligand to confer resistance: 0.99
SK-MEL-28, PLX4720 - 2 uM, ligand 0.4 ng/ml
  ability of recombinant RTK ligand to confer resistance: 0.92
SK-MEL-28, PLX4720 - 2 uM, ligand 1.6 ng/ml
  ability of recombinant RTK ligand to confer resistance: 0.89
SK-MEL-28, PLX4720 - 2 uM, ligand 6.25 ng/ml
  ability of recombinant RTK ligand to confer resistance: 0.98
SK-MEL-28, PLX4720 - 2 uM, ligand 25 ng/ml
  ability of recombinant RTK ligand to confer resistance: 0.92
SK-MEL-28, PLX4720 - 2 uM, ligand 100 ng/ml
  ability of recombinant RTK ligand to confer resistance: 0.98
